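Each compound was tested at five concentrations against cells in 96-well plates for 48 hours. Here, GI50 denotes the concentration required for 50% inhibition of growth.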 Active and inactive are the calls of the source. No stated cut-off is given here; in the data, active = GI50 up to about 1.1 µM and inactive = higher.
Experiments:
Assay in all cases: growth of human tumour cells (NCI), 48 h
SNB-19 = test system: SNB-19
SF-268 = test system: SF-268
UACC-62 = test system: UACC-62
SNB-75 = test system: SNB-75
HT-29 = test system: HT-29
786-0 = test system: 786-0
NCI-H460 = test system: NCI-H460
OVCAR-3 = test system: OVCAR-3
IGROV-1 = test system: IGROV-1
MOLT-4 = test system: MOLT-4
OVCAR-5 = test system: OVCAR-5
CAKI-1 = test system: CAKI-1
HCC 2998 = test system: HCC 2998
K562 = test system: K562
SF-539 = test system: SF-539
M14 = test system: M14
HOP-92 = test system: HOP-92
UO-31 = test system: UO-31

Measured: GI50

CS/C(=N\c1ccc([N+](=O)[O-])cc1C#N)NC(=O)c1ccccc1
inactive: SNB-19 > 100 µM | SF-268 > 100 µM | UACC-62 > 100 µM | SNB-75 28.4 µM | HT-29 > 100 µM | 786-0 > 100 µM | NCI-H460 > 100 µM | OVCAR-3 > 100 µM | IGROV-1 > 100 µM | MOLT-4 54.2 µM | OVCAR-5 > 100 µM | CAKI-1 94.2 µM | HCC 2998 > 100 µM | K562 > 100 µM | SF-539 > 100 µM | M14 > 100 µM | HOP-92 46 µM

CCOC(=O)C1=C(C)C2C3C(=O)OC(=O)C3C1(C)C1C(=O)OC(=O)C21 (centres undefined)
inactive: SNB-19 > 100 µM | SF-268 > 100 µM | UACC-62 > 100 µM | SNB-75 > 100 µM | UO-31 > 100 µM | HT-29 > 100 µM | 786-0 > 100 µM | NCI-H460 > 100 µM | OVCAR-3 > 100 µM | IGROV-1 > 100 µM | MOLT-4 > 100 µM | HCC 2998 > 100 µM | K562 > 100 µM | SF-539 > 100 µM | M14 > 100 µM | HOP-92 > 100 µM

C1=C(c2ccccc2)C(OC2Oc3ccccc3C=C2c2ccccc2)Oc2ccccc21 (centres undefined)
inactive: SNB-19 > 100 µM | SF-268 > 100 µM | UACC-62 > 100 µM | SNB-75 24.6 µM | UO-31 > 100 µM | HT-29 > 100 µM | 786-0 > 100 µM | NCI-H460 > 100 µM | OVCAR-3 > 100 µM | IGROV-1 > 100 µM | MOLT-4 > 100 µM | OVCAR-5 > 100 µM | CAKI-1 > 100 µM | HCC 2998 > 100 µM | K562 > 100 µM | M14 > 100 µM | HOP-92 > 100 µM

OC1=CN=C(C2CC2)Oc2ccccc21
inactive: SNB-19 > 100 µM | SF-268 > 100 µM | UACC-62 98.6 µM | SNB-75 > 100 µM | UO-31 25.7 µM | HT-29 > 100 µM | 786-0 > 100 µM | NCI-H460 > 100 µM | OVCAR-3 > 100 µM | IGROV-1 > 100 µM | MOLT-4 > 100 µM | HCC 2998 > 100 µM | K562 84.9 µM | SF-539 > 100 µM | M14 > 100 µM | HOP-92 96.2 µM

Cc1ccc(NC(=O)CCc2nnc(S)[nH]2)cc1
inactive: SNB-19 > 100 µM | SF-268 > 100 µM | UACC-62 17 µM | SNB-75 83.2 µM | UO-31 > 100 µM | HT-29 > 100 µM | 786-0 > 100 µM | NCI-H460 > 100 µM | OVCAR-3 > 100 µM | IGROV-1 > 100 µM | MOLT-4 > 100 µM | OVCAR-5 > 100 µM | CAKI-1 > 100 µM | K562 > 100 µM | SF-539 > 100 µM | M14 > 100 µM | HOP-92 > 100 µM

Nc1cn(C2OC(CC(c3ccccc3)(c3ccccc3)c3ccccc3)C(O)C2O)c(=O)[nH]c1=O (centres undefined)
inactive: SNB-19 26.8 µM | SF-268 34.7 µM | UACC-62 14.2 µM | SNB-75 > 100 µM | UO-31 31.6 µM | HT-29 23.2 µM | 786-0 21.4 µM | NCI-H460 18.3 µM | OVCAR-3 14.5 µM | IGROV-1 23.9 µM | MOLT-4 20.4 µM | OVCAR-5 21.2 µM | CAKI-1 19.5 µM | HCC 2998 27 µM | K562 23.4 µM | M14 22.5 µM | HOP-92 12.7 µM

Cc1cc(O)c(C=O)c(C)c1CCC1(C)C=Cc2cc(O)ccc2O1 (centres undefined)
inactive: SNB-19 38.9 µM | SF-268 30.3 µM | UACC-62 16.7 µM | SNB-75 22.6 µM | HT-29 31 µM | 786-0 29.3 µM | NCI-H460 22.6 µM | OVCAR-3 18.5 µM | IGROV-1 26.2 µM | MOLT-4 18.4 µM | OVCAR-5 30.5 µM | CAKI-1 19.2 µM | HCC 2998 29.4 µM | K562 24.3 µM | SF-539 18.3 µM | M14 17.5 µM | HOP-92 22.2 µM

N#C/C(=C1\SC(/N=N/c2ccccc2)C(=O)N1c1ccccc1)c1nc2ccccc2[nH]1 (centres undefined)
inactive: SNB-19 > 100 µM | SF-268 > 100 µM | UACC-62 > 100 µM | SNB-75 36.7 µM | UO-31 24.2 µM | HT-29 > 100 µM | 786-0 7.35 µM | NCI-H460 36.1 µM | OVCAR-3 68.1 µM | IGROV-1 20.5 µM | MOLT-4 26.1 µM | OVCAR-5 > 100 µM | CAKI-1 > 100 µM | K562 36.3 µM | SF-539 29.7 µM | M14 78.2 µM | HOP-92 23.5 µM

c1ccc2c(c1)[nH]c1c2nc2ncccn21
inactive: SNB-19 > 100 µM | SF-268 > 100 µM | UACC-62 > 100 µM | SNB-75 > 100 µM | UO-31 > 100 µM | HT-29 > 100 µM | 786-0 > 100 µM | NCI-H460 > 100 µM | IGROV-1 > 100 µM | MOLT-4 > 100 µM | OVCAR-5 > 100 µM | CAKI-1 > 100 µM | HCC 2998 > 100 µM | K562 > 100 µM | SF-539 > 100 µM | M14 > 100 µM | HOP-92 > 100 µM

Fc1ccc(/N=C2C=C/C(=N\c3ccc(F)cc3)c3ccccc3\2)cc1
inactive: SNB-19 70.5 µM | SF-268 40.2 µM | UACC-62 9.89 µM | SNB-75 > 100 µM | UO-31 > 100 µM | HT-29 > 100 µM | 786-0 > 100 µM | NCI-H460 93.1 µM | OVCAR-3 > 100 µM | IGROV-1 > 100 µM | MOLT-4 > 100 µM | OVCAR-5 > 100 µM | HCC 2998 > 100 µM | K562 > 100 µM | SF-539 54.1 µM | M14 > 100 µM | HOP-92 19.4 µM

O=C(O)C(Cc1ccccc1)N1C(=O)N/C(=C\c2ccc(F)cc2)C1=O (centres undefined)
inactive: UACC-62 36.7 µM | SNB-75 > 100 µM | UO-31 > 100 µM | HT-29 > 100 µM | 786-0 > 100 µM | NCI-H460 > 100 µM | IGROV-1 > 100 µM | MOLT-4 > 100 µM | OVCAR-5 > 100 µM | CAKI-1 > 100 µM | HCC 2998 > 100 µM | K562 > 100 µM | SF-539 > 100 µM | M14 > 100 µM | HOP-92 > 100 µM

CC(C)C1CC(O)O[C@@H]([C@@H](C)[C@H]2CC(=O)[C@@H]3[C@@H]4[C@@H](O)[C@H](O)[C@H]5[C@@H](O)[C@H](O)CC[C@]5(C)[C@H]4CC[C@]23C)C1 (some centres undefined)
inactive: SNB-19 37.8 µM | SF-268 39.9 µM | UACC-62 79.4 µM | SNB-75 22.2 µM | UO-31 > 100 µM | HT-29 > 100 µM | 786-0 48 µM | NCI-H460 > 100 µM | OVCAR-3 > 100 µM | IGROV-1 24.5 µM | MOLT-4 > 100 µM | HCC 2998 > 100 µM | K562 > 100 µM | SF-539 > 100 µM | M14 91.6 µM | HOP-92 22.2 µM

From ChEMBL document CHEMBL1201862, “PubChem BioAssay data set” (2004)
